Legend:
[1] = tested on: WI38 cells; test: Reversal of nicotine-induced LIF-to-MYF transdifferentiation in WI38 cells, Western analysis; conditions: for reversal of nicotine-induced decrease in PTHrP receptor expression: 7 days agonist after 7 days nicotine 10^−9 M (Example 3); for reversal of nicotine-induced decrease in PPARγ expression / reversal of nicotine-induced increase in αSMA expression: 7 days agonist after 7 days nicotine (Example 3); for reversal of nicotine-induced changes in expression of PTHrP receptor, PPARγ, ADRP, αSMA and calponin: RGZ 1×10^−5 M, PTHrP 5×10^−7 M, DBcAMP 1×10^−5 M for 7 days after 7 days nicotine
Experimental: The human embryonic cell line WI38 was obtained from the American Type Culture Collection (Rockville, Md.). Cells were grown in minimum essential medium (MEM) +10% fetal bovine serum at 37° C. in six-well plates, two well slides, and 60-mm and 100-mm culture dishes, as needed. […] Subsequently, the cells were treated with rosiglitazone (RGZ) (1×10^−5 M) (a PPARγ agonist), PTHrP (5×10^−7 M), or DBcAMP (1×10^−5 M) for 7 days, and the expression of PTHrP receptor, PPARγ, ADRP, calponin, and cSMA was determined by Western analysis and immunohistochemistry. Simultaneously, fibroblast function was characterized by measuring their capacity to take up triglycerides. Some experiments were performed in the presence of a specific PPARγ antagonist, GW9662. Medium containing fresh chemicals was added daily, and at the end of the experimental period the cells were processed as needed.
For Western blotting, cells were lysed using an extraction buffer [10 mM tris (hydroxymethyl) aminomethane (Tris, pH 7.5), 0.25 M sucrose, 1 mM EDTA, 5 mM benzamidine, 2 mM phenylmethylsulfonyl fluoride, and 10 (j.tg/ml each of pepstatin A, aprotinin, and leupeptin], and centrifuged at 140 g for 10 min (4° C.). Equal amounts of the protein (25 μg) from the supernatant were dissolved in electrophoresis sample buffer and were subjected to sodium dodecyl sulfate-polyacrylamide (4%-12% gradient) gel electrophoresis (SDS-PAGE) followed by electrophoretic transfer to a nitrocellulose memane. The nonspecific binding of antibody was blocked by washing with Tris-buffered saline (TBS) containing 0.1% Tween 20 (TBST) and 5% milk for 1 h. The blot was then subjected to two brief washes with TBST plus 0.5% Tween 20, incubated in TBST plus 0.1% Tween 20 and the specific primary antibodies (PPARγ 1:2000, Alexis Biochemicals, San Diego, Calif.; cSMA 1:50,000, Sigma, St. Louis, Mo.: ADRP 1:3000) overnight at 4° C. Blots were then washed in TBST plus 0.1% Tween 20 and then incubated for 1 h in secondary antibody, washed, and developed with a chemiluminescent substrate [enhanced chemiluminescence (ECL); Amersham, Arlington Heights, Ill.] following the manufacturer's protocol. The densities of the specific protein bands were quantified using a scanning densitometer (Eagle Eye II still video system, Stratagene, La Jolla, Calif.).

[2] = tested on: WI38 cells; test: Reversal experiment, triglyceride (triolein) uptake by WI38 cells; assay type: cell-based, human; conditions: RGZ 10^−5 M, PTHrP 5×10^−7 M, DBcAMP 1×10^−5 M for 7 days after nicotine
[3] = tested on: WI38 cells; test: Western blot of lipogenic and myogenic marker proteins in WI38 cells (nicotine with or without lipogenic pathway agonists); assay type: cell-based, human; conditions: PTHrP 5×10^−7 M, DBcAMP 1×10^−4 M, RGZ 1×10^−5 M
Experimental: (§1) The human embryonic cell line WI38 was obtained from American Type Culture Collection (Rockville, Md.). Cells were grown in MEM plus 10% FBS at 37° C. in six-well plates, four-well slides, and 60- and 100-mm culture dishes as needed.
Western blotting was performed with modifications of methods described previously (Ayad and Wong (1998) Crit. Care Med 26: 1277-1282). […] Equal amounts of the protein (25 μg) from the supernatant were dissolved in electrophoresis sample buffer and were subjected to SDS-PAGE (4-12% gradient) followed by electrophoretic transfer to a nitrocellulose membrane. Nonspecific binding of antibody was blocked by washing with Tris-buffered saline (TBS) containing 5% milk for 1 h. The blot was then subjected to two brief washes with TBS plus 0.5% Tween 20, incubated in TBS plus 0.1% Tween 20 and the specific primary antibodies (PPAR 1:2,000, Alexis Biochemicals, San Diego, Calif.; -SMA 1:50,000, Sigma; ADRP 1:3,000, a kind gift from Dr. Constantine Londos, National Institute of Diabetes and Digestive and Kidney Diseases) overnight at 4° C. Blots were then washed in TBS plus 0.1% Tween 20 and then incubated for 1 h in secondary antibody, washed, and developed with a chemiluminescent substrate (ECL; Amersham, Arlington Heights, Ill.) following the manufacturer's protocol.

[4] = tested on: WI38 cells; test: Triglyceride uptake assay ([3H]triolein) in WI38 cells; assay type: cell-based, human; conditions: concomitant treatment; RGZ 1×10^−5 M, PTHrP 5×10^−7 M, DBcAMP 1×10^−4 M; nicotine 1×10^−9 M, 7 days
Experimental: as §1
The method used to quantitate triglyceride uptake by fetal rat lung fibroblasts has been described previously (Torday et al. (1995) Biochim Biophys Acta 1254: 198-206). Briefly, culture medium was replaced with DMEM containing 20% adult rat serum mixed with [3H]triolein (5 μCi/ml). The cells were incubated at 37° C. in 5% CO2+balance air for 4 h. At the termination of the incubation, the medium was decanted, the cells were rinsed twice with 1 ml of ice-cold MEM, and the cells were removed from the culture plate after a 5- to 10-min incubation with 2 ml of a 0.05% trypsin solution. An aliquot of the cell suspension was taken for protein assay (Bradford (1976) Anal Biochem 72: 248-254), and the remaining cell suspension was extracted for neutral lipid content.

[5] = tested on: WI38 cells; test: Reversal experiment, immunofluorescence double staining (ADRP or lipid droplets and αSMA) in WI38 cells; assay type: cell-based, human; conditions: RGZ 1×10^−5 M, DBcAMP 1×10^−5 M, 7 days after nicotine
Experimental: Cells were grown in minimum essential medium (MEM) +10% fetal bovine serum at 37° C. in six-well plates, two well slides, and 60-mm and 100-mm culture dishes, as needed. […] Subsequently, the cells were treated with rosiglitazone (RGZ) (1×10^−5 M) (a PPARγ agonist), PTHrP (5×10^−7 M), or DBcAMP (1×10^−5 M) for 7 days, and the expression of PTHrP receptor, PPARγ, ADRP, calponin, and cSMA was determined by Western analysis and immunohistochemistry. Simultaneously, fibroblast function was characterized by measuring their capacity to take up triglycerides. Some experiments were performed in the presence of a specific PPARγ antagonist, GW9662. Medium containing fresh chemicals was added daily, and at the end of the experimental period the cells were processed as needed.
The lipogenic and myogenic status of cultured WI38 cells was assessed by simultaneous staining for either lipid droplets or ADRP and αSMA. Lipids were detected by using either oil red 0 staining or ADRP expression (polyclonal anti-ADRP 1:500), and αSMA expression was assessed by using anti-αSMA (1:1000, mouse monoclonal IgG2a, Sigma, catalog No. A2547) primary antibody. […] At the end of the experimental period, slides were fixed in freshly prepared 4% paraformaldehyde. […] Slides were rinsed three times for 5 min and then mounted and visualized under a fluorescence microscope.

Row | Compound | reversal of nicotine-induced decrease in PTHrP receptor expression [1] | reversal of nicotine-induced decrease in PPARγ expression [1] | reversal of nicotine-induced increase in αSMA expression [1] | reversal of nicotine-induced changes in expression of PTHrP receptor, PPARγ, ADRP, αSMA and calponin [1] | block of nicotine-induced decrease in triolein uptake [2] | prevention of nicotine-induced decreases in PTHrP receptor and PPAR and increase in α-SMA protein expression [3] | prevention of nicotine-induced decrease in triglyceride uptake [4] | reversal of nicotine-induced decreases in ADRP and lipid droplet staining and increase in αSMA staining [5]
1 | PTHrP-(1-34) | reversed | reversed | reversed | almost completely reversed | at least partially blocked | completely prevented | effectively prevented | 
2 | CCCC(=O)Nc1ncnc2c1ncn2[C@@H]1O[C@@H]2COP(=O)(O)O[C@H]2[C@H]1OC(=O)CCC [DBcAMP, dibutyryl cAMP] | reversed | did not reach statistical significance | reversed | almost completely reversed | at least partially blocked | completely prevented | effectively prevented | reversed

— US9173875B2, “Treatment for nicotine-induced lung disease using peroxisome proliferator-activated receptor gamma agonists” (Los Angeles Biomedical Research Institute at Harbor-UCLA …, priority 2006, dated 2015)
